Data reported in patent US20260232666A1, “COMPOSITIONS AND METHODS FOR INHIBITION OF RAS” (TheRas, Inc., priority 2023, published 2026).

What was measured:
[1] = target: T1, GppNHp-loaded KRAS4b (amino acids 1-169) G12C/C118S protein (Homo sapiens, UniProt P01116, C118S/G12C); assay: Covalent cysteine 12 modification by MALDI-TOF MS, GppNHp-loaded KRAS G12C; type: binding; conditions: 15 minutes reaction time point
T1 construct: KRAS4b (amino acids 1-169) G12C/C118S protein; made in house
Description: (§1) Biological Example 1: Covalent Cysteine 12 Modification Analysis Using Matrix Assisted Laser Desorption Ionization-Time of Flight Mass Spectrometry (MALDI-TOF MS)
(§2) MALDI-TOF MS analysis was performed using 1 μM protein (KRAS G12C), and 1:2.5 protein to compound ratio.
(§3) Reaction: 1 μM of GppNHp, GTP, or GDP-loaded KRAS4b (amino acids 1-169) G12C/C118S protein (produced in-house by Protein Expression Laboratory, FNLCR/Leidos Biomed) in 20 mM 4-(2-hydroxyethyl)-1-piperazineethanesulfonic acid (HEPES) buffer containing 150 mM NaCl, 1 mM MgCl2, pH 7.3 was prepared freshly before assay. Twelve-μL aliquots of protein were dispensed onto low volume 384-well plate, then 30 nL of tested compounds from 1 mM DMSO stocks were added to appropriate wells using ECHO 555 acoustic liquid handler (Labcyte Inc.). For each reaction/assay, three blanks were prepared by mixing 12 μL of protein solution with 30 nL DMSO. The contents of the wells were carefully mixed by aspiration, and then each plate was sealed with an adhesive cover, centrifuged at 2000 g for 1 minute, and kept in the dark at room temperature until 5 min, 15 min, 30 min, 2 h, or 6 h collections.
(§4) Target pretreatment: Before each assay MALDI target (Bruker MPT 384 ground steel BC) was pre-treated by pipetting on each spot 0.75 μL of saturated sinapinic acid in acetonitrile (ACN).
(§5) Sample preparation: At collection time point, 2 μL of reaction mixtures were pipetted out into 15 μL MALDI matrix solution (saturated solution of sinapinic acid in 1:1 ACN:water solution containing 0.75% trifluoroacetic acid (TFA)) deposited on 384 well polypropylene plate. Resulting solution was mixed by aspiration, centrifuged at 2000 g for 1 minute, then 1.5 μL aliquots were dispensed on pre-treated MALDI target using Beckman Coulter Biomek FXP 96/384-Span-8 Laboratory Automation Workstation. Finally, the MALDI target was dried under mild vacuum to produce spots with fine crystalline structure.
(§6) Measurements: MALDI-TOF measurements were performed on a Bruker Daltonics rapiflex Tissuetyper TOF-TOF mass spectrometer using linear mode and mass range from 18.6 to 21.6 kDa. Detector gain was set to 3.3×(483 V), sample rate to 5 GS/s, real time smoothing to medium (175 MHz), laser smart beam pattern was set to: “MS Thin Layer M5”, and the laser frequency was 10000 Hz. Spectra were automatically collected using custom AutoXecute method. Laser power was auto adjusted using fuzzy control. The peak selection range was set to be between 19000 and 21500 Da. Peak evaluation uses half width parameter set to be smaller than 40 Da for processed spectrograms (centroid peak detection; smoothed by SavitzkyGolay algorithm using 7 m/z width and 2 cycles; baseline was subtracted using median algorithm with flatness 1 and median level 0.01). Fuzzy control used Proteins/Oligonucleotides protocol with minimum half width 1/10 times above threshold. Up to 40000 satisfactory shots were collected in 10000 shot steps. Dynamic termination was implemented to finish data collection when peak signal/noise ratio was reaching value of 50.
(§7) Spectra processing: Spectra were smoothed by SavitzkyGolay algorithm using 7 m/z width and three cycles. Centroid peak detection algorithm was used with signal to noise threshold set to 6, relative intensity threshold 4%, peak width 10 m/z and median baseline subtraction using flatness of 1 and median level of 0.01. Peak intensity and area under the peak were evaluated and recorded for all peaks between 19,300 Da and 21,550 Da.
(§8) Calculation of percent modification: Percent modification was calculated as a ratio of peak height for protein modified by compound to sum of peak height of remaining protein plus peak height for protein modified by compound. If multiple modifications were observed each was calculated as a ratio of peak height for given modification versus sum of peak heights for all observed protein species. Data reported in Table 4 are from 15 minutes reaction time point. […]

[2] = target: T2, GDP-loaded KRAS4b (amino acids 1-169) G12C/C118S protein (Homo sapiens, UniProt P01116, C118S/G12C); assay: Covalent cysteine 12 modification by MALDI-TOF MS, GDP-loaded KRAS G12C; type: binding; conditions: 15 minutes reaction time point
T2 construct: KRAS4b (amino acids 1-169) G12C/C118S protein; made in house
Description: as §1, §2, §3, §4, §5, §6, §7, §8

pERK in NCI-H358 cells = assay: Cell-based pERK HTRF assay (pERK inhibition in H358 cells); conditions: Homo sapiens, NCI-H358, 0.5 h, 30 min incubation
Description: Biological Example 3: Cell-Based pERK HTRF Assay
pERK assays (Perkin Elmer) were used to determine the effectiveness of compounds of the present disclosure in disrupting KRAS G12C protein/effector signaling in cells.
On Day 1, cells (NCI-H358) were seeded into 96-well plates at 4×10^4 cells/well in complete growth media (RPMI, 10% FBS).
On Day 2, cells were treated with compounds at 0.25% DMSO. The source plate was created with compounds diluted in media at 5-fold the final assay concentration. The compounds were run in a 9-point concentration curve starting at 75 μM, with a 3-fold dilution between concentrations. 20 μL was transferred onto the cell plates (final volume in wells was 100 μL). Plates were harvested after 30 min incubation by aspirating media and adding kit-supplied 1× supplemented lysis buffer to all wells (75 μl per well). Plates were then placed on a plate shaker and incubated at 850 rpm for an additional 30 min.
Antibody mixture solution was prepared by diluting aliquoted d2 and Eu Cryptate antibodies 1:20 in kit supplied detection buffer, then mixed the diluted antibodies solutions (1:1 v:v). 4 μL of this solution was then added to a 384-well detection plate (Perkin Elmer; 6008230).
Samples were homogenized by pipetting up and down and then transferred (16 μL of cell lysates) from the 96-well cell culture plate to two wells of the HTRF 384-well detection plate containing the antibody solution. Plates were centrifuged (524 g for […]) and allowed to incubate between 4 and 24 h at room temperature. Maximum signal is reached after 4 h incubation time and remains stable over a period of 24 hours. Therefore, readings can be made between 4 and 24 h of incubation. Plates were centrifuged again (524 g for 1 min), and analyzed on the En Vision plate reader using the following settings: Excitation 320 nm, Bandwidth 75 nm; Emission 615 nm, Bandwidth 85 nm; Gain 100%; Flashes 100; Lag 60 μs.
The percent of modification of GppNHp, GTP, or GDP loaded KRAS G12C by MALDI-TOF MS, biochemical Raf1 RBD-KRAS G12C-GppNHp disruption assay IC50, and pERK inhibition IC50 of selected compounds described herein are shown in Table 4. For percent of modification at 15 minutes (MALDI-TOF MS) of GppNHp, GTP, or GDP loaded KRAS G12C: A: percent of modification ≥70%; B: 50≤percent of modification <70%; C: 10%≤percent of modification <50%; D: percent of modification <10%. […] For pERK inhibition in H358 cell assay: A: IC50≤0.1 μM; B: 0.1 μM<IC50≤1 μM; C: IC50>1 μM. Blanks in the table represent that compound was not tested in the indicated assay.

[3] = target: T3, GTP-loaded KRAS4b (amino acids 1-169) G12C/C118S protein (Homo sapiens, UniProt P01116, C118S/G12C); assay: Covalent cysteine 12 modification by MALDI-TOF MS, GTP-loaded KRAS G12C; type: binding; conditions: 15 minutes reaction time point
T3 construct: KRAS4b (amino acids 1-169) G12C/C118S protein; made in house
Description: as §1, §2, §3, §4, §5, §6, §7, §8

GppNHp-KRAS G12C percent of modification [1]	GDP-KRAS G12C percent of modification [2]	IC50 (pERK in NCI-H358 cells) [nM]	GTP-KRAS G12C percent of modification [3]	Structure (SMILES)
B (50≤percent of modification <70%)	B (50≤percent of modification <70%)	< 100	C (10%≤percent of modification <50%)	C[C@@H]1[C@H](N(C)c2nc(OC[C@@]34CCCN3C[C@H](F)C4)nc3c(F)c(-c4ccc(F)c5sc(N)c(C#N)c45)c(C(F)(F)F)cc23)CCN1C(=O)/C=C/c1nc(C(C)(F)F)no1 [Compound 188, 2-amino-4-(4-(((2R,3R)-1-((E)-3-(3-(1,1-difluoroethyl)-1,2,4-oxadiazol-5-yl)acryloyl)-2-methylpyrrolidin-3-yl)(methyl)amino)-8-fluoro-2-(((2R,7aS)-2-fluorotetrahydro-1H-pyrrolizin-7a(5H)-yl)methoxy)-6-(trifluoromethyl)quinazolin-7-yl)-7-fluorobenzo[b]thiophene-3-carbonitrile]
B (50≤percent of modification <70%)	B (50≤percent of modification <70%)	< 100	B (50≤percent of modification <70%)	COC1CC(COc2nc(N(C)C3CCN(C(=O)/C=C/c4nc(C(C)(F)F)no4)C3C)c3cc(Cl)c(-c4ccc(F)c5sc(N)c(C#N)c45)c(F)c3n2)N(C)C1 (centres unmarked) [Compound 190]
B (50≤percent of modification <70%)	C (10%≤percent of modification <50%)	< 100	C (10%≤percent of modification <50%)	CCN(c1nc(OC[C@@H]2C[C@@H](OC)CN2C)nc2c(F)c(-c3ccc(F)c4sc(N)c(C#N)c34)c(C(F)(F)F)cc12)[C@@H]1CCN(C(=O)[C@H](F)Cl)[C@@H]1C [Compound 179]
B (50≤percent of modification <70%)	B (50≤percent of modification <70%)	100 to 1000	C (10%≤percent of modification <50%)	C=CC(=O)N1CC[C@@H](N(C)c2nc(OC[C@@H]3CC(=C(F)F)CN3C)nc3c(F)c(-c4ccc(F)c5sc(N)c(C#N)c45)c(Cl)cc23)[C@H]1C [Compound 202]
A (percent of modification ≥70%)	A (percent of modification ≥70%)	< 100	A (percent of modification ≥70%)	C=CC(=O)N1CC[C@@H](N(C)c2nc(OC[C@@H]3[C@@H](OC)CCN3C)nc3c(F)c(-c4ccc(F)c5sc(N)c(C#N)c45)c(Cl)cc23)[C@H]1C [Compound 196]

More lines, now with the values behind:

Structure (SMILES)	GppNHp-KRAS G12C percent of modification [1]	GDP-KRAS G12C percent of modification [2]	IC50 (pERK in NCI-H358 cells) [nM]	GTP-KRAS G12C percent of modification [3]
C=CC(=O)N1CC[C@@H](N(C)c2nc(O[C@@H](C)[C@@H]3C(=C(F)F)CCN3C)nc3c(F)c(-c4ccc(F)c5sc(N)c(C#N)c45)c(Cl)cc23)[C@H]1C [Compound 201]	B (50≤percent of modification <70%)	B (50≤percent of modification <70%)	100 to 1000	C (10%≤percent of modification <50%)
CCN(c1nc(OC[C@@]23CCCN2C[C@H](F)C3)nc2c(F)c(-c3ccc(F)c4sc(N)c(C#N)c34)c(C(F)(F)F)cc12)[C@H]1CCN(C(=O)[C@@H](F)Cl)C1 [Compound 186]	C (10%≤percent of modification <50%)	C (10%≤percent of modification <50%)	< 100	B (50≤percent of modification <70%)
CCN(c1nc(OC[C@@]23CCCN2C[C@H](F)C3)nc2c(F)c(-c3ccc(F)c4sc(N)c(C#N)c34)c(C(F)(F)F)cc12)[C@H]1CCN(C(=O)[C@H](F)Cl)C1 [Compound 187]	B (50≤percent of modification <70%)	B (50≤percent of modification <70%)	< 100	B (50≤percent of modification <70%)
C[C@@H]1[C@H](N(C)c2nc(OC[C@@]34CCCN3C[C@H](F)C4)nc3c(F)c(-c4ccc(F)c5sc(N)c(C#N)c45)c(C(F)(F)F)cc23)CCN1C(=O)[C@@H](F)Cl (atropisomer, axis not shown) [Compound 184]	D (percent of modification <10%)	D (percent of modification <10%)	100 to 1000	D (percent of modification <10%)
C=CC(=O)N1CC[C@@H](N(C)c2nc(O[C@@H](C)[C@@H]3C(=C)CCN3C)nc3c(F)c(-c4ccc(F)c5sc(N)c(C#N)c45)c(Cl)cc23)[C@H]1C [Compound 200]	A (percent of modification ≥70%)	C (10%≤percent of modification <50%)	< 100	B (50≤percent of modification <70%)
C=CC(=O)N1CC[C@@H](N(C)c2nc(OC[C@@H]3[C@@H](OC)CCN3C)nc3c(F)c(-c4ccc(F)c5sc(N)c(C#N)c45)c(C(F)(F)F)cc23)[C@H]1C [Compound 197]	A (percent of modification ≥70%)	A (percent of modification ≥70%)	< 100	A (percent of modification ≥70%)
